Measured values published in patent US5773424A, “Treatment of toxoplasmosis” (priority 1994, dated 1998).
Read-outs that look alike come from different tables or passages of the source.

Assays:
[1] = tested on: Toxoplasma gondii grown in human fibroblasts; experiment: Incorporation of radiolabeled uracil (parasite survival); format: cell-based; conditions: Toxoplasma gondii, Fibroblast, read-out: percent survival of Toxoplasma gondii grown in human fibroblasts
Procedure: Incorporation of Radiolabeled Uracil. […] Uptake and incorporation of radiolabeled uracil into nucleic acids of T. gondii were carried out, at least in triplicates, in tissue culture, using monolayers of human foreskin fibroblasts infected with T. gondii. The fibroblasts were cultured in no more than 30 passages in Dulbecco's modified Eagle medium, containing 100 units/mL penicillin G and 100 μg/mL streptomycin sulfate, and 10% FBS, pH 7.2. Briefly, confluent cells (4-5 day incubation) were cultured for 24 hours in the 24-well flat bottom microtiterplates (~5×10^5 /1 mL/well) and incubated at 37° C. in 5% CO2, 95% air to allow the cells to attach. The medium was then removed and the cells were infected with isolated T. gondii in medium with 3% FBS (1 parasite/cell). After 1 hour incubation, the cultures were washed with media with 10% FBS to remove extracellular parasites. FBS was maintained at a final concentration of 10%. […] After an additional 18 hours incubation, the medium was replaced with 1 mL drug free media containing […] (2 μCi/mL) and incubated for another 6 hours, after which the media was removed. The fibroblasts were released from the wells by trypsinization with the addition of 200 μL trypsin/EDTA (2.5×) to each well. After 10 minutes incubation, 1 mL of ice cold 10% trichloroacetic acid (TCA) was added to each well. The plates were then placed on a shaker to insure the detachment of the cells. The suspended contents of each well were filtered through GF/A 2.4 cm glass microfiber filters (Whatman, Hillsboro, Oreg.), which were prewashed each with 1 mL double distilled H2 O and dried. After filtration, the filters were washed with 10 mL methanol, left to dry, and then placed in scintillation vials containing 5 mL of Econo-Safe scintillation fluor (Research Products International Corp., Mount Prospect, Ill.), and radioactivity was counted using an LS5801 Beckman scintillation counter.

[2] = Toxicity of compounds, MTT assay; format: cell-based, human; conditions: human, foreskin fibroblasts, MTT, 48 hours, read-out: percent survival of uninfected human fibroblasts
Procedure: (§1) Toxicity of compounds. Toxicity of the different doses of the various analogues were performed at least in triplicates, using a modification of the Microculture Tetrazolium (MTT) assay and uninfected monolayers of human foreskin fibroblasts. Briefly, confluent cells were incubated for at least 24 hours in the 96-well flat bottom microtiterplates (~10^5 /200 μL/well) and incubated at 37° C. in 5% CO2, 95% air to allow the cells to attach. The medium was then replaced with 200 μL of fresh medium. […] The cultures were then incubated for 48 hours, after which 50 μL of sterile MTT solution (2 mg/1 mL PBS) was added to each well. MTT solution was sterilized by filtration through 0.22 μm filters (Costar, Cambridge, Mass.). After 4 hours incubation, the medium was removed and 100 μL of dimethylsulfoxide (DMSO) was added to each well and the plates were shaken gently for 2-3 minutes to dissolve the formed formazan crystals. The absorbance was measured at 540 nm, using a computerized microtiterplate reader (Themomax, Molecular Division)

[3] = tested on: uninfected human foreskin fibroblasts; experiment: Toxicity of compounds, MTT assay; format: cell-based; conditions: therapeutic doses (5-50 μM tested)
Procedure: as §1

[4] = biological target: T. gondii adenosine kinase (Toxoplasma gondii, UniProt Q9TVW2); experiment: biochemical; conditions: for inhibition at 1000 µM: read-out: Inhibition of T. gondii adenosine kinase
Chain of T. gondii adenosine kinase (Q9TVW2 whole entry): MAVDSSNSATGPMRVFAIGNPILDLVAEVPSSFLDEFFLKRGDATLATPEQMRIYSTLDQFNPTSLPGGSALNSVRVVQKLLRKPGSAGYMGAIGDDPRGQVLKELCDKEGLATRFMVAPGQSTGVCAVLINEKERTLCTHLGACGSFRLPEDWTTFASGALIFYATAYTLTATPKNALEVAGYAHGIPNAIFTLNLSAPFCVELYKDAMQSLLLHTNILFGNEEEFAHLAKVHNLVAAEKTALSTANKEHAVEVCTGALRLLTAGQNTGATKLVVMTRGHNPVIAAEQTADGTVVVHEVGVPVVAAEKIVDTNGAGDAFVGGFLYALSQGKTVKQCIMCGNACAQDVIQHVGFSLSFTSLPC
Procedure: Preparation of cytosol extracts. For the structure activity relationships studies, approximately 5×10^8 T. gondii were suspended in 1.2 ml of 50 mM N-2-hydroxyethylpiperazine-N'-2-ethanesulfonic acid (HEPES)-Cl (pH 8.0)/1 mM dithiothreitol and homogenized for 30 seconds at setting 10, using a Brinnmann Instruments Polytron homogenizer fitted with a PTA 7K1 probe. The homogenate was then centrifuged at approximately 116,000 g for 1 hour at 5° and the supernatant (cytosol extract) collected and used as the enzyme source. Fresh cytosol extracts were prepared for each experiment.
Adenosine kinase assay. T. gondii adenosine kinase activity was measured by following the formation of [^14 C]AMP from [^14 C]adenosine and ATP. […] Therefore, the standard reaction mixture contained 50 mM HEPES-Cl (pH 8.0), 1 mM dithiothreitol, 5 μM [8-^14 C]adenosine (45 Ci/mol), 0.5 mM ATP, 0.5 mM MgCl2, 25 μM (+)-EHNA or 100 μM (±)-EHNA,10-30 μl of cytosol extract (approximately 3-10 μg of protein), and either 0, 0.1, 0.25, 0.5 or 1.0 mM of the compound to be tested, in a final volume of 150 μl.
Reactions were started by the addition of [8-^14 C]adenosine, incubated at 37° for 10 minutes and terminated by placing the reaction tubes in a boiling water bath for 2 minutes. Precipitated proteins were removed by centrifugation in a microcentrifuge (approximately 13,000 g) for 5 minutes, and a 15 μl aliquot of the resulting supernatant was mixed with 5 μl of a solution containing 10 mM each of AMP and adenosine. This mixture was then spotted on silica gel thin layer chromatography plates which were developed with a mixture of chloroform/methanol/acetic acid (16:3:1). […] The substrate and product spots (which accounted for all of the radioactivity on the plates) were identified by UV quenching, cut out, and the radioactivity quantitated by liquid scintillation counting in 20 ml of Scintilene, using a Packard 460 scintillation counter. […] Enzyme velocity was calculated by multiplying the fraction of AMP formed from adenosine times the amount of adenosine in the assay, and dividing by the incubation time.
Determination and significance of AppKi values. AppKi values were used to determine the relative degree of binding of compounds to adenosine kinase as compared to adenosine. AppKi values were estimated from Dixon plots of the data (1/.nu. versus [I]), using a computer program with least squares fitting according to the general principles of Cleland (Cleland, W W, The statistical analysis of enzyme kinetic data. Adv. Enzymol. 29:1-32, 1967). The program was written by Dr. Sungman Cha (Brown University, Providence, R.I.) and modified to fit IBM BASIC by Dr. Fardos N. M. Naguib. […] It should be noted, however, that the type of inhibition (i.e., competitive, noncompetitive, or uncompetitive) produced by the compounds was not determined, nor were the compounds evaluated as substrates for T. gondii adenosine kinase.

[5] = 5 μM, [5,6-3H]uracil incorporation
[6] = 10 μM, [5,6-3H]uracil incorporation
[7] = 25 μM, [5,6-3H]uracil incorporation
[8] = 50 μM, [5,6-3H]uracil incorporation

| Compound | activity at 5 µM [1, 5] | activity at 10 µM [1, 6] | activity at 25 µM [1, 7] | activity at 50 µM [1, 8] | viability at 48 h, 5 µM [2] | viability at 48 h, 10 µM [2] | viability at 48 h, 25 µM [2] | viability at 48 h, 50 µM [2] | other results |
| --- | --- | --- | --- | --- | --- | --- | --- | --- | --- |
| [N-]=[N+]=Nc1ccc(CNc2ncnc3c2ncn3[C@@H]2O[C@H](CO)[C@@H](O)[C@H]2O)cc1 | 36.9% | 17% | 15.1% | 24.5% | 97.3% | 90.3% | 88.9% | 81.5% | – |
| O=[N+]([O-])c1ccc(CNc2ncnc3c2ncn3[C@@H]2O[C@H](CO)[C@@H](O)[C@H]2O)cc1 | 35.9% | 27.6% | 21.6% | 8.4% | 104% | 102% | 92.3% | 107% | – |
| O=[N+]([O-])c1ccc(C[Se]c2ncnc3c2ncn3[C@@H]2O[C@H](CO)[C@@H](O)[C@H]2O)cc1 [Compound 24, 6-(p-Nitrobenzyl)selenopurine riboside] | – | – | – | – | 89.3% | 90.1% | 63.4% | 39.6% | activity at 5 µM [1]: 67.8%; activity at 10 µM [1]: 3.03%; activity at 25 µM [1]: 0%; activity at 50 µM [1]: 0% |
| O=C(Nc1ncnc2c1ncn2[C@@H]1O[C@H](CO)[C@@H](O)[C@H]1O)c1ccccc1 [Compound 44, N^6 -Benzoyladenosine] | 96.4% | 94.6% | 112% | 100% | 94.4% | 94.1% | 97.6% | 99.3% | – |
| OC[C@H]1O[C@@H](n2cnc3c(NCc4ccccc4)ncnc32)[C@H](O)[C@@H]1O [Compound 45, N^6 -Benzyladenosine] | 62.8% | 41.8% | 52.9% | 26.3% | 46.3% | 21.8% | 36.5% | 31% | Toxicity to host cells (human fibroblasts), in words [3]: toxic to host cells at therapeutic doses |
| Nc1ccc(CNc2ncnc3c2ncn3[C@@H]2O[C@H](CO)[C@@H](O)[C@H]2O)cc1 [Compound 46, N^6 -(p-Aminobenzyl)adenosine] | 100% | 95.6% | 108% | 120% | 93.3% | 91.9% | 101% | 101% | – |
| COc1ccc(C(=O)Nc2ncnc3c2ncn3[C@@H]2O[C@H](CO)[C@@H](O)[C@H]2O)cc1 [Compound 47, N^6 -(p-Methoxybenzolyl)adenosine (N^6 -anisoyladenosine)] | 94.2% | 93.1% | 104% | 125% | 92.9% | 92.6% | 99.2% | 97.4% | – |
| Nc1nc2c(ncn2[C@@H]2O[C@H](CO)[C@@H](O)[C@H]2F)c(=O)[nH]1 [Compound 121, 2'-Fluoro-2'-deoxyguanosine] | – | – | – | – | – | – | – | – | inhibition at 1000 µM [4]: < 10% |
| CC1(C)O[C@@H]2[C@H](O1)[C@@H](CO)O[C@H]2n1cnc2c(=S)[nH]cnc21 [Compound 122, 2',3'-O-Isopropylidene-6-mercaptopurine riboside] | – | – | – | – | – | – | – | – | Ki [4]: 3900 µM |
| NC(=O)c1ncn([C@@H]2O[C@H](CO)[C@@H](O)[C@H]2O)c1N [Compound 123, 5'-Aminoimidazole-4-carboxamide riboside] | – | – | – | – | – | – | – | – | Ki [4]: 2400 µM |
| COc1ccc(C[C@H](N)C(=O)N[C@H]2[C@@H](O)[C@H](n3cnc4c(N(C)C)ncnc43)O[C@@H]2CO)cc1 [Compound 124, 3'(α-Amino-p-methoxyhydrocinnamamido)-3'-deoxy-N^6-dimethyladenosine (Puromycin)] | – | – | – | – | – | – | – | – | Ki [4]: 1300 µM |
| Nc1ncnc(NC2C=C(CO)C(O)C2O)c1[N+](=O)[O-] (centres unmarked) [Compound 125, 4-(3-Hydroxymethyl-4,5-dihydroxy-2-cyclopenten-1-yl)amino-5-nitro-6-aminopyrimidine] | – | – | – | – | – | – | – | – | inhibition at 1000 µM [4]: < 10% |
| O=c1[nH]cnc(NC2C=C(CO)C(O)C2O)c1[N+](=O)[O-] (centres unmarked) [Compound 126, 4-(3-Hydroxymethyl-4,5-dihydroxy-2-cyclopenten-1-yl)amino-1,6-dihydro-5-nitro-6-oxopyrimidine] | – | – | – | – | – | – | – | – | inhibition at 1000 µM [4]: < 10% |
| Nc1nc(NC2C=C(CO)C(O)C2O)c([N+](=O)[O-])c(=O)[nH]1 (centres unmarked) [Compound 127, 2-Amino-4-(3-hydroxymethyl-4,5-dihydroxy-2-cyclopenten-1-yl)aminto-1,6-dihydro-5-nitro-6-oxopyrimidine] | – | – | – | – | – | – | – | – | Ki [4]: 940 ± 110 µM |
| CCc1nc(N)nc(N)c1-c1ccc(Cl)cc1 [Pyrimethamine, reference compound] | 25.9% | 12.9% | 10.2% | 13.8% | 104% | 98.8% | 108% | 118% | – |
| Nc1ccc(S(=O)(=O)Nc2ncccn2)cc1 [Sulfadiazine, reference compound] | 74.6% | 64.8% | 66.3% | 66.3% | 98.2% | 99.7% | 99.8% | 102% | – |
